# Experimental data: ChEMBL document CHEMBL3885861, “Open TG-GATES”
# Species: Rattus norvegicus
# Assay: Open TG-GATES - Regimen: Single
# Format: toxicity, organism-based, Sprague-Dawley
# Parameters: regimen Single, gender Male, age 6 weeks
# Conditions: in vivo, po, 1000 mg/kg, route gavage, dose level High; for APTT / Bas / Eos / Fbg / Hb / Ht / Lym / MCH / MCHC / MCV / Mono / Neu / PT / Plat / RBC / Ret / WBC: tissue Blood; for KIDNEY_L / KIDNEY_R / KIDNEY_TOTAL: tissue Kidney; for LIVER: tissue Liver; for ALP / ALT / AST / BUN / CRE / Ca / Cl / DBIL / GLC / IP / K / LDH / Na / PL / RALB / TBIL / TC / TG / TP / gamma-GTP: tissue Plasma
structure (smiles),measurement,setting,value
COC(=O)C1=C(C)NC(C)=C(C(=O)OC)C1c1ccccc1[N+](=O)[O-] [NIFEDIPINE],TERMINAL_BW,3 h,207.9 g
same,APTT,3 h,16.6 s
same,Bas,3 h,0%
same,Eos,3 h,1%
same,Fbg,3 h,285.2 mg/dL
same,Hb,3 h,13 g/dL
same,Ht,3 h,39.9%
same,Lym,3 h,69.8%
same,MCH,3 h,20.8 pg
same,MCHC,3 h,32.6%
same,MCV,3 h,63.8 fL
same,Mono,3 h,4.6%
same,Neu,3 h,24.2%
same,PT,3 h,14.9 s
same,Plat,3 h,122.2 x10_4/uL
same,RBC,3 h,626 x10_4/ul
same,Ret,3 h,9.7%
same,WBC,3 h,108.1 x10_2/uL
same,KIDNEY_L,3 h,0.9 g
same,KIDNEY_R,3 h,0.9 g
same,KIDNEY_TOTAL,3 h,1.9 g
same,LIVER,3 h,8.4 g
same,ALP,3 h,1381.2 IU/L
same,ALT,3 h,51 IU/L
same,AST,3 h,74.8 IU/L
same,BUN,3 h,26.2 mg/dL
same,CRE,3 h,0.2 mg/dL
same,Ca,3 h,11.8 mg/dL
same,Cl,3 h,97.2 meq/L
same,DBIL,3 h,0.008 mg/dL
same,GLC,3 h,260.8 mg/dL
same,IP,3 h,9.2 mg/dL
same,K,3 h,5 meq/L
same,LDH,3 h,99.4 IU/L
same,Na,3 h,134.8 meq/L
same,PL,3 h,141.4 mg/dL
same,RALB,3 h,2.5 g/dL
same,TBIL,3 h,0.036 mg/dL
same,TC,3 h,81.6 mg/dL
same,TG,3 h,46.4 mg/dL
same,TP,3 h,5.2 g/dL
same,gamma-GTP,3 h,1.6 IU/L
same,TERMINAL_BW,6 h,205.1 g
same,APTT,6 h,16.5 s
same,Bas,6 h,0.2%
same,Eos,6 h,0.4%
same,Fbg,6 h,282.6 mg/dL
same,Hb,6 h,13 g/dL
same,Ht,6 h,39.6%
same,Lym,6 h,77%
same,MCH,6 h,20.6 pg
same,MCHC,6 h,32.8%
same,MCV,6 h,62.7 fL
same,Mono,6 h,3.6%
same,Neu,6 h,18%
same,PT,6 h,14.9 s
same,Plat,6 h,123.3 x10_4/uL
same,RBC,6 h,632.4 x10_4/ul
same,Ret,6 h,9.2%
same,WBC,6 h,92.1 x10_2/uL
same,KIDNEY_L,6 h,0.9 g
same,KIDNEY_R,6 h,0.9 g
same,KIDNEY_TOTAL,6 h,1.9 g
same,LIVER,6 h,7.3 g
same,ALP,6 h,1242.8 IU/L
same,ALT,6 h,50.6 IU/L
same,AST,6 h,83 IU/L
same,BUN,6 h,40.2 mg/dL
same,CRE,6 h,0.2 mg/dL
same,Ca,6 h,11 mg/dL
same,Cl,6 h,97.2 meq/L
same,DBIL,6 h,0.008 mg/dL
same,GLC,6 h,229.6 mg/dL
same,IP,6 h,11 mg/dL
same,K,6 h,5 meq/L
same,LDH,6 h,81 IU/L
same,Na,6 h,136.4 meq/L
same,PL,6 h,148.2 mg/dL
same,RALB,6 h,2.6 g/dL
same,TBIL,6 h,0.052 mg/dL
same,TC,6 h,90.2 mg/dL
same,TG,6 h,16.4 mg/dL
same,TP,6 h,5.4 g/dL
same,gamma-GTP,6 h,1 IU/L
same,TERMINAL_BW,9 h,206.6 g
same,APTT,9 h,16.7 s
same,Bas,9 h,0.4%
same,Eos,9 h,0.4%
same,Fbg,9 h,287 mg/dL
same,Hb,9 h,13.2 g/dL
same,Ht,9 h,39.8%
same,Lym,9 h,74%
same,MCH,9 h,20.8 pg
same,MCHC,9 h,33.3%
same,MCV,9 h,62.5 fL
same,Mono,9 h,4.8%
same,Neu,9 h,19.2%
same,PT,9 h,14.6 s
same,Plat,9 h,123.6 x10_4/uL
same,RBC,9 h,637 x10_4/ul
same,Ret,9 h,9.7%
same,WBC,9 h,96.3 x10_2/uL
same,KIDNEY_L,9 h,0.9 g
same,KIDNEY_R,9 h,0.9 g
same,KIDNEY_TOTAL,9 h,1.7 g
same,LIVER,9 h,7.1 g
same,ALP,9 h,1341 IU/L
same,AST,9 h,75.2 IU/L
same,BUN,9 h,41.8 mg/dL
same,CRE,9 h,0.2 mg/dL
same,Ca,9 h,10.8 mg/dL
same,Cl,9 h,96.4 meq/L
same,DBIL,9 h,0.008 mg/dL
same,GLC,9 h,217.4 mg/dL
same,IP,9 h,11.9 mg/dL
same,K,9 h,5.3 meq/L
same,LDH,9 h,85 IU/L
same,Na,9 h,134.6 meq/L
same,PL,9 h,152.4 mg/dL
same,RALB,9 h,2.6 g/dL
same,TBIL,9 h,0.052 mg/dL
same,TC,9 h,90.8 mg/dL
same,TG,9 h,22.2 mg/dL
same,TP,9 h,5.5 g/dL
same,gamma-GTP,9 h,1.4 IU/L
same,TERMINAL_BW,24 h,197.1 g
same,APTT,24 h,17.4 s
same,Bas,24 h,0.2%
same,Eos,24 h,0.8%
same,Fbg,24 h,374 mg/dL
same,Hb,24 h,13.1 g/dL
same,Ht,24 h,39.6%
same,Lym,24 h,72.8%
same,MCH,24 h,20.9 pg
same,MCHC,24 h,33.1%
same,MCV,24 h,63.3 fL
same,Mono,24 h,3.6%
same,Neu,24 h,22%
same,PT,24 h,13.7 s
same,Plat,24 h,142.3 x10_4/uL
same,RBC,24 h,625.8 x10_4/ul
same,Ret,24 h,9.7%
same,WBC,24 h,99.5 x10_2/uL
same,KIDNEY_L,24 h,0.8 g
same,KIDNEY_R,24 h,0.9 g
same,KIDNEY_TOTAL,24 h,1.7 g
same,LIVER,24 h,6.9 g
same,ALP,24 h,1549.8 IU/L
same,ALT,24 h,40.6 IU/L
same,AST,24 h,67.8 IU/L
same,BUN,24 h,10.8 mg/dL
same,CRE,24 h,0.2 mg/dL
same,Ca,24 h,10.4 mg/dL
same,Cl,24 h,106 meq/L
same,DBIL,24 h,0.012 mg/dL
same,GLC,24 h,167 mg/dL
same,IP,24 h,8.6 mg/dL
same,K,24 h,3.8 meq/L
same,LDH,24 h,78.2 IU/L
same,Na,24 h,143 meq/L
same,PL,24 h,126.4 mg/dL
same,RALB,24 h,2.9 g/dL
same,TBIL,24 h,0.054 mg/dL
same,TC,24 h,78 mg/dL
same,TG,24 h,27 mg/dL
same,TP,24 h,6.1 g/dL
same,gamma-GTP,24 h,1 IU/L
